Experimental data as given in patent publication US9486444B1, “Anti-cancer compound” (KING SAUD UNIVERSITY, priority 2016, dated 2016).
Entries after “also recorded” stand apart in the source; their conditions may differ.

System: U-937 blood cancer cell line
Assay: MTT in vitro cytotoxicity assay
Type: cell-based
Details: U-937, MTT assay
Experimental: For cytotoxicity assays, the anti-cancer compounds were prepared as a stock solution, to suit a universal 96 well plate map, at different concentrations in μM, and dissolved in DMSO dH2O. Working solutions were prepared in the culture medium and added to the wells 24 hours after seeding of 5 to 7×10^3 cells per well in 200 μL of fresh culture medium. DMSO (1%)/dH2O was used as the solvent control. The DMSO concentration was maintained at a concentration less than 1% (i.e., a non-toxic concentration). Microscopic cytological changes were monitored and photographed following exposure to different concentrations of the compounds for 24 and 48 hours using an inverted microscope. After the respective periods of treatment, plates were centrifuged and washed with fresh growth medium. Then, 20 μL of MTT solution [5 mg/mL in phosphate-buffered saline (PBS)] was added to each well, and the plates were wrapped with aluminum foil and incubated overnight at 37° C. The plates were centrifuged and the supernatants were removed carefully […]. The purple formazan product was dissolved in 100 μL of 100% DMSO. The absorbance was monitored at 570 nm (measurement) and 630 nm (reference) using a 96 well plate reader. Data were collected for four replicates each and used to calculate the median effect dose or concentration; i.e., IC50. […]

Substance	cytotoxicity (in words) (24 and 48 hours)	IC50 (24 hour incubation time, read-out: IC50 = concentration of drug required to inhibit growth of 50% of the cancer cells)
5′-benzyl-4′-(p-tolyl)-5-(trifluoromethoxy)spiro[3,2′]oxindolopyrrolidino-4′-(methylphenyl)-1″-styryl-5-benzylidene-spiro[3′.3″]piperidi-4″-one [Compound 4i]	most cytotoxic compound; also recorded: excellent cytotoxicity effects at the lowest concentrations	–
bleomycin [reference compound]	–	16.2 ± 4.5 µM
